Among the data in a melting point compilation (Tetko et al.) are melting point values, retold here.

Broadly, the melting point is the temperature of the solid-liquid transition. In turn, `Nc1ccc(Cl)cc1C(=O)NCC1CC1` came in with a melting point of 152 to 154 °C. The result for `O=C(O)c1ccc(Oc2ccc(Br)cc2)nc1` reads 175 to 177 °C; that for `Nc1nc(-c2ccccc2C(F)(F)F)cs1`, 115 to 117 °C; that for `O=C1CN(Cc2ccccc2)CCN1`, 150 to 152 °C.

`O=C(O)c1ccccc1OCc1ccccc1Br` returned a melting point of 129 to 131 °C. The result for `N#Cc1ccccc1Oc1ccc(C(=O)O)cc1Cl` reads 174 to 176 °C; that for `O=C1C(=O)N(Cc2ncon2)c2ccc(Br)cc21`, 197 to 199 °C. As for `Oc1cnc2cc(Cl)c(Cl)cc2n1`, the melting point lay within 299 to 301 °C.

`O=C(O)c1cc(S(=O)(=O)N2CCOCC2)ccc1I` displayed a melting point of 183 to 185 °C.

In turn, `Cc1sc(N)nc1-c1ccc(OC(F)F)cc1` yielded a melting point of 105 to 107 °C. For `CC(C)(C)NC(=O)c1ccccc1C(=O)O`, the melting point lay in the range of 146 to 148 °C. To `NC(=NO)c1ccc(N2CCCCC2)nc1` belongs 165 to 167 °C. To `Cn1nc(C(=O)O)c(=O)c2ccccc21` belongs 244 to 246 °C; to `CCOC(=O)Nc1snc(C)c1C(C)=O`, 80 to 82 °C. To `NS(=O)(=O)c1ccc(N2CCCC2=O)cc1` belongs 247 to 249 °C; to `COC(=O)c1cc(OC)ccc1S(=O)(=O)Cl`, 49 to 51 °C. Take `CC(O)c1nc(-c2ccccc2)cs1` (stereo unspecified): the melting point fell in the range of 75 to 77 °C. The result for `O=C1COc2cc(S(=O)(=O)Cl)c(Br)cc2N1` reads 223 to 225 °C; that for `COc1c(Br)cc(Br)cc1C=O`, 93 to 96 °C; that for `Cc1cccc(-c2nc(CC(=O)O)cs2)c1`, 110 to 112 °C. To `CCn1nc(C)c(C(C)=O)c1C` belongs 30 to 32 °C; to `N#Cc1cc2ccccc2o1`, 33 to 35 °C. To `NC(=NO)c1ccc(O)cc1Cl` belongs 153 to 155 °C. The compound `CN(C)C=C(C#N)S(C)(=O)=O` yielded a melting point of 129 to 131 °C. The result for `O=[N+]([O-])c1cnn(CCCl)c1` reads 55 to 57 °C; that for `Nc1nc(CCl)nc2sc3c(c12)CCCCC3`, 174 to 176 °C. To `O=C(O)CCNc1ccccc1` belongs 56 to 60 °C. To `O=c1ccccn1Cc1ccc(Cl)c([N+](=O)[O-])c1` belongs 92 to 94 °C; to `COC(=O)c1ccc(C(=O)O)cn1`, 210 to 212 °C.

Consider `OCc1cccc(F)c1Cl`, for which the melting point was 34 to 36 °C. The result for `CC(C)(C)OC(=O)N1CCC2(C1)NC(=O)NC2=O` (stereo unspecified) reads 214 to 216 °C; that for `Cc1cc(C(F)(F)F)nc(O)n1`, 185 to 187 °C; that for `COc1ccc(C(=O)O)cc1-c1ccccc1`, 220 to 222 °C. To `CS(=O)(=O)c1ccc(N)cc1Cl` belongs 193 to 195 °C; to `COC(=O)Nc1ccc(CN)cc1`, 103 to 105 °C; to `CCOc1ccc(C(=O)N(C)C)cc1N`, 127 to 129 °C.

Compound `O=C1Cc2ncccc2N1` gave a melting point of 189 to 191 °C.

On to `COc1ccc([N+](=O)[O-])cc1CCl`, for which the melting point was in the range of 78 to 80 °C. The result for `CCn1ncc2c(C(=O)O)cc(-c3cccs3)nc21` reads 243 to 245 °C; that for `Nc1cccc(CN2CCN(c3ccccn3)CC2)c1`, 168 to 170 °C.

For `Cc1cc(-c2nc(C)cs2)c(=O)[nH]n1`, the melting point lay within 267 to 269 °C. The result for `CC(Cl)C(=O)Nc1ccc(Cl)cc1` (stereo unspecified) reads 100 to 102 °C; that for `COC(=O)c1cc([N+](=O)[O-])cc(S(C)(=O)=O)c1`, 134 to 136 °C; that for `Cc1noc(-c2ccc([N+](=O)[O-])c(C)c2)n1`, 132 to 134 °C. In turn, `c1ccc2cc(C3CO3)ccc2c1` (stereo unspecified) had a melting point of 57 to 59 °C.

Regarding `O=C(O)c1nc2ncc(Br)cn2n1`, the melting point lay within 199 to 201 °C. The result for `O=C(O)CNC(=O)C=Cc1cccnc1` reads 264 to 266 °C.

The compound `O=C(O)C1CCC(=O)N(Cc2ccccc2)C1` (stereo unspecified) displayed a melting point of 154 to 156 °C. Take `O=C(O)CCC1CCNCC1`: the melting point lay in the range of 275 to 277 °C. To `Nc1ccc(-n2ccnc2)cc1C(F)(F)F` belongs 109 to 111 °C; to `Cc1c(N)cccc1CS(C)(=O)=O`, 149 to 151 °C; to `O=c1[nH]c(-c2cccc(F)c2)cs1`, 198 to 200 °C.

Consider `O=C(O)c1cc(-c2ccccc2)nc2nc(N3CCCCC3)sc12`, for which the melting point fell in the range of 347 to 349 °C. Compound `CN(CC(C)(C)C)C(=O)c1cccc(C(=O)O)c1` returned a melting point of 132 to 134 °C. Consider `CN(C)CCCNS(=O)(=O)c1ccc(Cl)c([N+](=O)[O-])c1`, for which the melting point lay in the range of 98 to 100 °C.

Consider `COCCOc1ccc(C=O)cc1OC`, for which the melting point is 67 to 69 °C. The result for `Cc1ccc(C)c(NC(=S)NN)c1` reads 162 to 164 °C. The result for `CCOC(=O)c1ccc(N2CC(N)C2)nc1` reads 72 to 74 °C. The result for `CSCC(=O)Nc1ccc(O)cc1` reads 107 to 109 °C; that for `Cc1nc(O)ccc1C(=O)O`, 329 to 331 °C; that for `ClCc1noc(-c2ccc(Cl)cc2)n1`, 79 to 81 °C. Consider `CCOC(=O)CNc1cc(Cl)cc(Cl)c1`, for which the melting point lay within 99 to 101 °C. To `CC1CCCCN1c1cc(C(=O)O)ccn1` (stereo unspecified) belongs 164 to 166 °C. To `CC1CCN(Cc2ccccc2CN)CC1` belongs 161 to 163 °C; to `CS(=O)(=O)c1snc(O)c1C#N`, 235 to 237 °C. To `COc1ccc(N)cc1-n1nnnc1C` belongs 130 to 132 °C; to `O=C(O)C1CC(=O)N(c2ccc3c(c2)Cc2ccccc2-3)C1` (stereo unspecified), 254 to 256 °C; to `O=C(O)C1CSC(c2ccsc2)N1` (stereo unspecified), 144 to 146 °C. For `O=C(O)CCc1ccc(-c2ccccc2)o1`, the melting point was 118 to 120 °C.

For `CC(C)(C)CNC(=O)c1ccc(C(=O)O)cc1`, the melting point lay within 201 to 203 °C.

For `FC(F)(F)c1ccc(-n2cccn2)nc1`, the melting point was in the range of 66 to 68 °C. The result for `O=C(O)Cn1cnc(-c2ccccc2)n1` reads 179 to 181 °C; that for `NC1(C(=O)NCC2CC2)CCCC1`, 64 to 66 °C.

In turn, `COc1ccc(C2C(CO)CC(=O)N2C)cc1` (stereo unspecified) yielded a melting point of 82 to 84 °C. The result for `O=C1C(Br)CCN1c1cccc([N+](=O)[O-])c1` (stereo unspecified) reads 104 to 106 °C; that for `CN(c1ccccc1)S(=O)(=O)c1cc(C(=O)O)ccc1Br`, 204 to 206 °C. `Cc1ccc(-c2cc(C(=O)O)c3c(C)noc3n2)c(C)c1` returned a melting point of 222 to 224 °C.

As to `CC(C)Oc1ccc(Cl)c(C(=O)O)n1`, the melting point is 70 to 72 °C.

Compound `CC(C)(C)OC(=O)NC1CN(c2ccccc2)C1=O` (stereo unspecified) showed a melting point of 167 to 169 °C. To `CC(C)(C)OC(=O)N1CCC(C)(C(=O)O)CC1` belongs 149 to 151 °C; to `Cc1ccccc1-n1c(S)nc2scc(-c3ccccc3)c2c1=O`, 157 to 159 °C; to `O=C(O)CCC(=O)N1CCc2sccc2C1`, 130 to 132 °C.

With `COc1c(F)cc(Br)cc1S(=O)(=O)Cl`, the melting point was 50 to 52 °C. On to `O=C(O)C1CC(=O)N(c2ccccc2F)C1` (stereo unspecified), for which the melting point is 130 to 135 °C. To `O=C1CCCC(C(F)(F)F)N1` (stereo unspecified) belongs 123 to 125 °C; to `CCC(N)=S`, 40 to 42 °C.

`Nc1ccc(F)c(-n2nnnc2C2CC2)c1` had a melting point of 93 to 95 °C.

For `O=C(O)CCNS(=O)(=O)c1ccc2ccccc2c1`, the melting point was 170 to 180 °C.

For the compound `Cc1cn2nc(N)c3ccccc3c2n1`, the melting point was 216 to 218 °C. `O=Cc1cc(-c2cccs2)cs1` returned a melting point of 107 to 109 °C.

For `CCCN1C(=O)C(=O)c2cc(Br)ccc21`, the melting point fell in the range of 129 to 131 °C. `O=C(O)c1ccc(NC(=O)N2CCCCC2)c(F)c1` yielded a melting point of 179 to 181 °C. The result for `C1CCC(c2nnn[nH]2)CC1` reads 109 to 111 °C; that for `Nc1ccc(NCc2ccccn2)cc1`, 89 to 91 °C; that for `CCOC(=O)C(=O)Nc1ccc(C)cc1`, 64 to 66 °C. The compound `Nc1cccnc1Oc1ccccc1` gave a melting point of 107 to 109 °C.

`COc1cc(N)c(N)cc1OC`: the melting point fell in the range of 126 to 128 °C. To `Cc1cs/c(=N\c2ccccc2)n1C1CCCC1` belongs 51 to 53 °C; to `COc1ccc(OC)c(C(C)NC(=O)CCl)c1` (stereo unspecified), 103 to 105 °C; to `C#Cc1cccc(OC)n1`, 47 to 49 °C. In turn, `CN(c1ccccc1)S(=O)(=O)c1ccc(Cl)c(C(=O)O)c1` displayed a melting point of 151 to 153 °C.

`NC(=S)c1ccc(Br)s1` returned a melting point of 169 to 171 °C. The result for `Cc1cc(S(=O)(=O)Cl)cc(C(=O)O)c1F` reads 169 to 171 °C; that for `O=C(CCl)/N=c1\sccn1Cc1ccc(Cl)cc1Cl`, 128 to 130 °C; that for `NNS(=O)(=O)c1ccccc1[N+](=O)[O-]`, 89 to 91 °C. In turn, `O=C(O)CCCNc1nc(-c2ccccc2)cs1` yielded a melting point of 155 to 157 °C. The compound `Cc1cc(Br)cc2cc(C(=O)C(C)C)oc12` showed a melting point of 69 to 71 °C.

For `C=CCNC(=O)NC(=O)CCl`, the melting point lay in the range of 113 to 115 °C. `N#Cc1c(NC(=O)CCl)oc(-c2ccccc2)c1-c1ccccc1` displayed a melting point of 155 to 157 °C. The result for `CC(C)(C)c1cnc(N)s1` reads 79 to 81 °C; that for `CC(=O)C(Cl)C(=O)Nc1ccccc1` (stereo unspecified), 101 to 104 °C. To `CC1(C2CC2)NC(=O)NC1=O` (stereo unspecified) belongs 168 to 170 °C; to `CN(c1ccc(C(=O)O)cc1)C1CCCCC1`, 148 to 150 °C. In the case of `O=C(O)COc1ccc(Br)cc1F`, the melting point fell in the range of 106 to 108 °C.

In the case of `O=C1NCCCN2CCCC12` (stereo unspecified), the melting point was 120 to 122 °C. The result for `Cc1ccc(-c2ccc(C=O)s2)cc1` reads 87 to 89 °C. To `Nc1ccccc1C(=O)NC1CCCC1` belongs 174 to 176 °C; to `COCCNc1c(N)n(Cc2ccccc2)c(=O)[nH]c1=O`, 209 to 211 °C; to `N#Cc1ccc(Cl)cc1NCc1ccccc1`, 93 to 95 °C. Consider `c1ccc(Nc2ccccn2)cc1`, for which the melting point is 78 to 82 °C.

Consider `CC(C)(C)OC(=O)N1CC(=CC(=O)O)C1`, for which the melting point lay within 140 to 142 °C.
